From patent publication US20220267269A1, “COMPOUNDS FOR THE MODULATION OF PROPROTEIN CONVERTASE SUBTILISIN/KEXIN TYPE 9 (PCSK9)” (SRX Cardio, LLC, priority 2019, published 2022) come the findings set out here.

Each structure is given as a SMILES string.

One series deals with T1, PCSK9 (Homo sapiens, UniProt Q8NBP7).
T1 construct: purchased Cayman Chemical 20631
As to the kind of experiment: Fluorescent-LDL uptake analysis by flow cytometric analysis. It counts as cell-based. Here is the method:
Cells, such as HuH7, FL83B, or a cell line transfected with a short-hairpin PCSK9 knockdown sequence such as HuH7/shPCSK9 or FL83B/shPCSK9 were plated and cultured at 37° C. for 12-24 h. Culture media was removed and replaced with fresh lipoprotein-depleted culture media supplemented with 5 μg/mL of fluorescently labeled LDL or lipoprotein-depleted culture media supplemented with 5 μg/mL of fluorescently labeled LDL plus a concentration of recombinant PCSK9 (for example 5 μg/mL recombinant PCSK9; Cayman Chemical, Cat. #20631). Examples of fluorescently labeled LDL include: DiI-LDL (Kalen Biomedical), or LDL conjugated to Dylight (e.g., LDL-Dylight 488, or LDL-Dylight 550 (Cayman Chemical, Cat. #10011229)). Lipoprotein-depleted culture media was composed of DMEM (Invitrogen) with 10% lipoprotein-depleted fetal bovine serum (Kalen Biomedical) and supplemented with penicillin-streptomycin (Life Technologies). Cells were dosed with small molecule test compounds at doses ranging from 0 nM to 100 μM, following a protocol adapted from Benjannet et al., “Effects of the prosegment and pH on the activity of PCSK9: evidence for additional processing events” J Biol Chem. 285(52):40965-40978 (2010), which is incorporated by reference in its entirety.
Following an incubation period of specified length, such as 16 hours, the lipoprotein-depleted media was removed and cells rinsed three times with a rinse solution (Dulbecco's phosphate buffered saline (D-PBS, Life Technologies), supplemented with 0.5% bovine serum albumin (BSA, Sigma) and 1 g/L glucose (Sigma)). The fluid was then removed, and cells are released from the plate using TrypLE Express (Life Technologies) per manufacturer's recommended procedures, such as incubation for 5-10 minutes at 37° C. The TyrpLE-Cell suspension was then transferred to 15 mL conical tubes, volume was increased to 2 mL with D-PBS supplemented with 0.5% BSA, and […], and the tubes were centrifuged at 250×gravity for 10 minutes. Following centrifugation, the supernatant was aspirated and the cell pellet was resuspended in 300 μL PBS and counterstained with 4′,6-diamidino-2-phenylindole (DAPI, Cayman Chemical) as a cell viability marker, other cell viability markers such as 7-aminoactinomycin D (7AAD, Life Technologies) have also been described in the art.
Cells were analyzed by for both 7AAD (dead cells) and fluorescent LDL in live cells using a flow cytometer per the manufacturer's operating manual. Cells incubated with small molecule compounds that are inhibitors of PCSK9 will be expected to show increased amounts of LDL fluorescence, relative to control (no compound) specimens, and cells incubated with small molecule compounds that are activators of PCSK9 will be expected to show decreased amounts of LDL fluorescence relative to control (no compound) specimens.
The LDL-uptake EC50 is provided as follows: +++: <0.5 μM; ++: 0.5-1μM; +: >1 μM.

The nature of series [1]: In vivo PK in mice (IV and PO). The settings on record: male, C57BL/6, mouse, plasma. Here is the method:
(§1) A representative compound (Compound 1041) was tested for oral bioavailability and efficacy in mice. Male C57BL/6 mice were purchased from Taconic Biosciences (Rensselaer, New York) and housed under standard conditions with the exception of being provided a high fat diet (#TD.90221, Envigo, Madison, Wis.) and water ad libitum. Following 4 weeks of diet acclimation the animals were then dosed with compound or vehicle as control specimens. Compound readily dissolved at 1.5 mg/ml in a 1% Tween-80 aqueous solution with 10-15 minutes sonication. This solution was used at the 1.5 mg/ml concentration for oral (PO) dosing or further diluted with sterile saline for intravenous (IV) dosing.
Test animals received a single dose at 3 mg/kg by IV or 15 mg/kg by PO while control animals received an equal volume of vehicle control by IV or PO, respectively. Plasma samples were collected at 0.25, […], 1, 2, 3, 6, 8, 24, and 48 hours while liver specimens were collected at 8, 24, and 48 hours and drug concentration were measured by LC-MS/MS per standard protocols.
In brief, blood was immediately centrifuged, and the resulting plasma was frozen and stored at −80° C. until analysis. […] Compound concentrations were determined by a liquid chromatography-mass tandem spectrometry (LC-MS/MS) per routine method (Quintara Discovery, Hayward, Calif.) following the standard protocol. […]

Another series has as its system Male C57BL/6 mice. As to the kind of experiment: Liver panel in high fat diet mice. It is filed as in vivo. As to the method: as §1
To assess animal health following compound exposure, a liver panel (Test Code #60405) was tested by IDEXX BioAnalytics (North Grafton, Mass.). […] Also of note, AST and ALT levels in the liver panel were elevated in the PO vehicle, which is attributed to the high fat diet used in the study (Envigo, #TD.90221).

Series [2] is described as follows: Dissolution in dosing vehicle. It counts as physicochemical. The settings on record: 1% Tween-80 aqueous solution, 10-15 minutes sonication. As to the method:
as §1

[3] abbreviates: daily 15 mg/kg PO, 72-hour group, versus vehicle control.

T1 sequence (Q8NBP7 153-692): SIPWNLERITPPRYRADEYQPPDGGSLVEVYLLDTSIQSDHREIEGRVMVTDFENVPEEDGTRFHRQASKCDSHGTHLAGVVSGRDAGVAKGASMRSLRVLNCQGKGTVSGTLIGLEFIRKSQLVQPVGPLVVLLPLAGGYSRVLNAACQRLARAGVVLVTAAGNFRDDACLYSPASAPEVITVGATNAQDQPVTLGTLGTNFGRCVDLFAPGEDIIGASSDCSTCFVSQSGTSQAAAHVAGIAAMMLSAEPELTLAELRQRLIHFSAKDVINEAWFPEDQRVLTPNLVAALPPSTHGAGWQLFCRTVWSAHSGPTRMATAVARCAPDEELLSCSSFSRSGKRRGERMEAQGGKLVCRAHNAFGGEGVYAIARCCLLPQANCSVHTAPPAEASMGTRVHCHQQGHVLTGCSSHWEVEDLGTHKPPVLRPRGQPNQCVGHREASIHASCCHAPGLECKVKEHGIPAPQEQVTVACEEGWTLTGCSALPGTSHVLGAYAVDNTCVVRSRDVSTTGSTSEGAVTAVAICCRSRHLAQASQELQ

For the molecule `Cc1cc(-c2ccc(F)cc2)ccc1C1CCCN(C2CCCC2)C1` (stereo not shown) [Compound 1,041, 1-cyclopentyl-3-(4′-fluoro-3-methyl-[1,1′-biphenyl]-4-yl)piperidine], the EC50 at PCSK9 was in the range of 500 to 1000 nM. This molecule had a half-life in series [1] (IV 3 mg/kg) of 4.8 h. Also, the half-life in series [1] (PO 15 mg/kg) was 9.8 h. In the series on Male C57BL/6 mice (setting [3]), the “reduction in ALT levels” value is reported as 77.7% and the “reduction in AST levels” value was determined as 72.1%. Moreover, the liver panel toxicity entry in the series on Male C57BL/6 mice (three daily 15 mg/kg PO doses, 72 hours, versus PO vehicle) is “no overt toxicity”. Also, in series [2], the dissolved concentration is not below 1.5 mg/mL.

The term EC50 denotes the midpoint of the concentration-response curve. Broadly, the half-life is how long it takes for the measured level to halve. Higher therefore signals slow decline.
